Results reported in patent US20230092846A1, “COMBINATION FOR THE TREATMENT OF CANCER AND APPLICATION THEREOF” (EVERFRONT BIOTECH INC., priority 2020, published 2023).
Values after ≈ are worked out from the molar mass of the structure shown. Like-named read-outs stand apart in the source and are kept apart here.

Legend:
PANC-1 cells = assay: MTT cell viability analysis, single agents, PANC-1; format: cell-based, human; settings: MTT, cultured 24, 48 and 72 hours (time of IC50 not given)
Experimental: (§1) In this example, the effects of the compound of the present invention and different anticancer medicaments on killing cancer cells were studied by MTT (Thiazolyl Blue tetrazolium bromide, 3-[4,5-dimethylthiahiazo-2-yl]-[…] bromide) cell viability analysis.
(§2) Thereafter, each of the aforesaid cell lines was cultured with cell medium containing gemcitabine, cisplatin, 5-fluorouracil, irinotecan, oxaliplatin, paclitaxel, (Z)-n-butylidenephthalide, (E)-n-butylidenephthalide, 2-pentanolybenzoic acid, sodium 2-pentanoylbenzoate, and butylphthalide, for 24 hours, 48 hours and 72 hours, respectively.

Mia-PaCa2 cells = assay: MTT cell viability analysis, single agents, Mia-PaCa2; format: cell-based, human; settings: Mia-PaCa2, MTT, cultured 24, 48 and 72 hours (time of IC50 not given)
Experimental: as §1, §2

AsPC-1 cells = assay: MTT cell viability analysis, single agents, AsPC-1; format: cell-based, human; settings: AsPC-1, MTT, cultured 24, 48 and 72 hours (time of IC50 not given)
Experimental: as §1, §2

Panc02 cells = assay: MTT cell viability analysis, single agents, Panc02; format: cell-based, mouse; settings: MTT, cultured 24, 48 and 72 hours (time of IC50 not given)
Experimental: as §1, §2

[1] = tested on: Panc02 cells pancreatic tumor; assay: Orthotopic Panc02 pancreatic tumor, tumor size by T2-weighted MRI; format: in vivo, C57BL/6J mouse; settings: fifteenth day, 14 days of treatment; group regimens; FIG. 3
Experimental: (§3) According to the requirements of Institutional Animal Care and Use Committee (IACUC) of Dong Hwa University, C57BL/6J mice were feed in the experimental animal center of Dong Hwa University until 8 to 10 weeks old. Then, the stably constructed Panc02 cells transfected by Luc-eGFP were in-situ injected into the mice pancreases (1×10^6 cells/0.02 ml/mouse). Thereafter, the tumor sizes of mice pancreases were analyzed through the animal imaging results, and the mice were equally divided into nine group depending on their tumor sizes and treated by the following conditions for three to four weeks:
(1) “Control (Ctl.)” group (5 mice): untreated, only orally administering vehicle (containing none of the compound of the present invention and other anticancer medicaments) every day. […]
The stably constructed Panc02 cells transfected by Luc-eGFP were in-situ injected into the mice of each group of Example 4-1, and after determining the growth of in-situ pancreatic tumor, the medicament treatments were conducted for 14 days (i.e., the fifteenth day). In this duration, the pancreatic tumors of mice in each group were analyzed and observed by T2-weighted MRI and taken pictures for records. The tumor (a portion circled by a dotted line) sizes of mice of each group in FIG. 2 were analyzed by amide software.

[2] = tested on: Panc02 cells pancreatic tumor; assay: Survival of mice with orthotopic Panc02 pancreatic cancer; format: in vivo, C57BL/6J mouse; settings: Gem group: 100 mg/kg intraperitoneally per three days
Experimental: as §3
(1) “Control (Ctl.)” group (5 mice): untreated, only orally administering vehicle (containing none of the compound of the present invention and other anticancer medicaments) every day.
(2) “LD” group (5 mice): orally administering a low dose (12.5 mg/kg body weight) of (Z)-n-butylidenephthalide every day.
(3) “HD” group (5 mice): orally administering a high dose (25 mg/kg body weight) of (Z)-n-butylidenephthalide every day.
(4) “Gem” group (5 mice): intraperitoneally injecting 100 mg/kg body weight of gemcitabine (GEM) per three days.
(5) “LD+Gem” group (5 mice): orally administering 12.5 mg/kg body weight of (Z)-n-butylidenephthalide every day, and intraperitoneally injecting 50 mg/kg body weight of gemcitabine (GEM) per three days.
(6) “TS-1” group (5 mice): after orally administering 100 mg/kg body weight of TS-1 every day for five continuous days, stopping the oral administration of TS-1 for two days.
According to the method of Example 4-1, the pancreatic cancer mice were established and the survivals of mice in each group were observed and recorded every day. The results are shown in Table 15 and FIG. 5A to FIG. 5D.

PD-1 protein = assay: Western Blotting of pancreatic tumor tissue, PD-1; format: in vivo, C57BL/6J mouse; settings: FIG. 6, group regimens
Experimental: as §3
(§4) After accomplishing the observations of Examples 4-2 to 4-3, the mice in each group were sacrificed and the tissues of pancreatic tumor thereof were collected to extracting proteins. Then, the expressions of CD44 protein, CD44ICD protein, PD-1 protein, PD-L1 protein, p-Akt protein, and Akt protein in the protein sample of each group were detected by Western Blotting. Furthermore, the expression of GAPDH protein serves as an internal control.

PD-L1 protein = assay: Western Blotting of pancreatic tumor tissue, PD-L1; format: in vivo, C57BL/6J mouse; settings: FIG. 6, group regimens
Experimental: as §3, §4

[3] = Homo sapiens, MIA PaCa-2, read-out: IC50
[4] = Homo sapiens, ASPC1, read-out: IC50

IC50 (PANC-1 cells; Homo sapiens, read-out: IC50) [mg/L]	IC50 (Mia-PaCa2 cells; [3]) [mg/L]	IC50 (AsPC-1 cells; [4]) [mg/L]	IC50 (Panc02 cells; Mus musculus, read-out: IC50) [mg/L]	SMILES	IC50 (PANC-1 cells) [mg/L]	IC50 (Mia-PaCa2 cells) [mg/L]	IC50 (AsPC-1 cells) [mg/L]	IC50 (Panc02 cells) [mg/L]	tumor size (T2-weighted MRI) [1]	Average of overall survival [2] [days]	Median of overall survival [2] [days]	Fold (as compared to Ctl. group) ([2]; survival)	expression of PD-1 protein in pancreatic tumor tissue (PD-1 protein)	expression of PD-L1 protein in pancreatic tumor tissue (PD-L1 protein)
–	–	–	–	N.N.[Cl][Pt][Cl] [cisplatin, Cisplatin]	35.87 ± 1.23	32.86 ± 1.08	21.56 ± 1.05	53.36 ± 1.74	–	–	–	–	–	–
38.5 ± 1.08 (≈ 65.5 µM)	21.7 ± 0.82 (≈ 36.9 µM)	54.4 ± 2.13 (≈ 92.7 µM)	69.5 ± 1.01 (≈ 118 µM)	CCc1c2c(nc3ccc(OC(=O)N4CCC(N5CCCCC5)CC4)cc13)-c1cc3c(c(=O)n1C2)COC(=O)[C@]3(O)CC [irinotecan, Irinotecan]	–	–	–	–	–	–	–	–	–	–
–	–	–	–	O=C1[O][Pt]2([NH][C@@H]3CCCC[C@H]3[NH]2)[O]C1=O [oxaliplatin, Oxaliplatin]	18.79 ± 1.35	21.81 ± 1.60	42.60 ± 7.61	8.43 ± 0.83	–	–	–	–	–	–
0.0196 (≈ 0.023 µM)	0.00458 (≈ 0.00536 µM)	0.058 (≈ 0.0679 µM)	0.0124 (≈ 0.0146 µM)	CC(=O)O[C@H]1C(=O)[C@@]2(C)[C@H]([C@H](OC(=O)c3ccccc3)[C@]3(O)C[C@H](OC(=O)[C@H](O)[C@@H](NC(=O)c4ccccc4)c4ccccc4)C(C)=C1C3(C)C)[C@]1(OC(C)=O)CO[C@@H]1C[C@@H]2O [paclitaxel, Paclitaxel]	–	–	–	–	–	–	–	–	–	–
687 ± 27.1	469 ± 18.6	624 ± 49.6	750 ± 28.7	CCCCC(=O)c1ccccc1C(=O)[O-].[Na+] [sodium 2-pentanoylbenzoate, Sodium 2-pentanoylbenzoate]	–	–	–	–	–	–	–	–	–	–

SMILES	IC50 (PANC-1 cells; Homo sapiens, read-out: IC50) [mg/L]	IC50 (Mia-PaCa2 cells; [3]) [mg/L]	IC50 (AsPC-1 cells; [4]) [mg/L]	IC50 (Panc02 cells; Mus musculus, read-out: IC50) [mg/L]	IC50 (PANC-1 cells) [mg/L]	IC50 (Mia-PaCa2 cells) [mg/L]	IC50 (AsPC-1 cells) [mg/L]	IC50 (Panc02 cells) [mg/L]	tumor size (T2-weighted MRI) [1]	Average of overall survival [2] [days]	Median of overall survival [2] [days]	Fold (as compared to Ctl. group) ([2]; survival)	expression of PD-1 protein in pancreatic tumor tissue (PD-1 protein)	expression of PD-L1 protein in pancreatic tumor tissue (PD-L1 protein)
Nc1ccn([C@@H]2O[C@H](CO)[C@@H](O)C2(F)F)c(=O)n1 [gemcitabine, Gemcitabine]	1.53 ± 0.3 (≈ 5.81 µM)	0.85 ± 0.36 (≈ 3.23 µM)	6.56 ± 0.82 (≈ 24.9 µM)	0.00377 (≈ 0.0143 µM)	–	–	–	–	bigger than that of untreated “Control” group	31.7 ± 1.023	30	1.8	more than that of the untreated “Control” group	more than that of the untreated “Control” group
